IC50 data for 58 compounds are collected here from US7776862B2, “Pyridyl and phenyl substituted piperazine-piperidines with CXCR3 antagonist activity” (Schering Corporation, priority 2005, dated 2010).

The assay addresses T1, human CXCR3 (N-delta 4) (Homo sapiens, UniProt P49682).
T1 construct: CD8 leader; Flag tag; expressed in transfected cells; membranes used
T1 sequence (P49682 5-368 limits assumed): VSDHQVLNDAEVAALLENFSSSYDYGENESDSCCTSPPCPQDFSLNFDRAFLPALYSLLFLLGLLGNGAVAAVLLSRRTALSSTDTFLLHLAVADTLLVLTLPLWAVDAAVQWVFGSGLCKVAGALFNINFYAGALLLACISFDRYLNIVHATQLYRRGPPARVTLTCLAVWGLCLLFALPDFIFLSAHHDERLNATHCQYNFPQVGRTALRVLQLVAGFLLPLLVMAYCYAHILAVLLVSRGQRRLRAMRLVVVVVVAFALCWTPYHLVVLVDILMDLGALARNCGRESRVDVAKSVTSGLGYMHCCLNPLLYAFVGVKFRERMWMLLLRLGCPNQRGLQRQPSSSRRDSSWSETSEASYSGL
Put plainly: Human CXCR3 (N-delta 4) scintillation proximity assay (SPA), [125I] IP-10 binding. To be noted: IC50 rating; Ba/F3-hCXCR3 (N-delta 4) membranes, 25 pM [125I] IP-10. In a few lines:
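Membranes from mouse Ba/F3 pro-B cells stably expressing Flag-tagged human CXCR3 (N-delta 4) were coupled to SPA beads. IP-10 was added together with titrated compounds to start the reaction, and bound radioligand was read by scintillation proximity.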
The compound `C[C@H]1CN(c2ncc(C(=O)Nc3ccc(F)c(F)c3)cc2Cl)CCN1C1CCN(Cc2ccc(Cl)cc2)CC1` [compound 261] returned an IC50 of under 25 nM.

Compound `CCNC(=O)c1cnc(N2CCN(C3CCN(C(=O)c4ccc(-n5cccc5)cc4)CC3)[C@@H](CC)C2)c(Cl)c1` [compound 262] yielded an IC50 of under 25 nM.

`CCNC(=O)c1cnc(N2C[C@H](C)N(C3CCN(Cc4ccc(Cl)cc4F)CC3)C[C@H]2C)c(Cl)c1` [compound 263] had an IC50 of under 25 nM.

As for `C[C@@H]1CN(c2ncc(C(=O)NCc3ccc(Cl)c(Cl)c3)cc2Cl)CCN1C1CCN(Cc2ccc(Cl)cc2)CC1` [compound 264], the IC50 was under 25 nM.

Compound `O=C(NCc1ccc(F)c(F)c1)c1cnc(N2CCN(C3CCN(Cc4ccc(Br)cc4)CC3)CC2)c(Br)c1` [compound 265] displayed an IC50 of under 25 nM.

`C[C@H]1CN(c2ncc(C(=O)NCc3ccc(Cl)c(Cl)c3)cc2Cl)CCN1C1CCN(C(=O)c2ccc(C#N)cc2)CC1` [compound 266] gave an IC50 of under 25 nM.

As for `O=C(NCc1ccc(F)c(F)c1)c1cnc(N2CCN(C3CCN(Cc4ccc(Br)cc4)CC3)CC2)c(Cl)c1` [compound 267], the IC50 was 25 to 100 nM.

On to `O=C(NCc1ccc(F)c(F)c1)c1cnc(N2CCN(C3CCN(Cc4ccc([N+](=O)[O-])cc4)CC3)CC2)c(Cl)c1` [compound 268], for which the IC50 fell in the range of 25 to 100 nM.

In turn, `CCNC(=O)c1cnc(N2CCN(C3CCN(C(=O)c4ccc(C#N)cc4)CC3)[C@@H](CC)C2)c(Cl)c1` [compound 269] came in with an IC50 of 25 to 100 nM.

In turn, `C[C@@H]1CN(c2ncc(C(=O)NCc3ccc(F)c(F)c3)cc2Cl)CCN1C1CCN(Cc2ccc(C#N)cc2)CC1` [compound 270] came in with a concentration for half-maximal inhibition (IC50) of 25 to 100 nM.

As for `CNC(=O)c1cnc(N2CCN(C3CCN([C@@H]4CCc5cc(Cl)ccc54)CC3)[C@@H](C)C2)c(Cl)c1` [compound 271], the concentration for half-maximal inhibition (IC50) lay within 25 to 100 nM.

As to `O=C(NCc1ccc(F)cc1)c1cnc(N2CCN(C3CCN(Cc4ccc([N+](=O)[O-])cc4)CC3)CC2)c(Cl)c1` [compound 272], the IC50 lay in the range of 25 to 100 nM.

As to `CC[C@H]1CN(c2ncc(C(=O)NN)cc2Cl)CCN1C1CCN(Cc2ccc(Cl)cc2F)CC1` [compound 273], the IC50 fell in the range of 25 to 100 nM.

On to `CC[C@H]1CN(c2ncc(C(=O)NCCO)cc2Cl)CCN1C1CCN(C(C(=O)OC)c2ccc(Cl)cc2)CC1` (stereo partly shown) [compound 274], for which the IC50 lay within 25 to 100 nM.

Compound `CCNC(=O)c1cnc(N2CCN(C3CCN(Cc4ccc(Cl)cc4F)CC3)C(CC(F)(F)F)C2)c(Cl)c1` (stereo not shown) [compound 275] returned a concentration for half-maximal inhibition (IC50) of 25 to 100 nM.

Turning to `COc1ccc(CN2CCC(N3CCN(c4ncc(C(=O)NCc5ccc(Cl)c(Cl)c5)cc4Br)CC3)CC2)cc1` [compound 276], the half-maximal inhibitory concentration (IC50) is 25 to 100 nM.

Turning to `N#Cc1ccc(CN2CCC(N3CCN(c4ncc(C(=O)NCc5ccc(F)c(F)c5)cc4Br)CC3)CC2)cc1` [compound 277], the concentration for half-maximal inhibition (IC50) was in the range of 25 to 100 nM.

Turning to `CNC(=O)c1cnc(N2CCN(C3CCN([C@H]4CCc5cc(Cl)ccc54)CC3)[C@@H](C)C2)c(Cl)c1` [compound 278], the concentration for half-maximal inhibition (IC50) was in the range of 25 to 100 nM.

As to `O=C(NCc1ccc(Cl)c(Cl)c1)c1cnc(N2CCN(C3CCN(Cc4ccc(Cl)cc4)CC3)CC2)c(Br)c1` [compound 279], the IC50 was 25 to 100 nM.

On to `COc1ccc(CN2CCC(N3CCN(c4ncc(C(=O)NCc5ccc(F)c(F)c5)cc4Br)CC3)CC2)cc1` [compound 280], for which the IC50 is 25 to 100 nM.

For the compound `C[C@H]1CN(c2ncc(C(N)=O)cc2Cl)CCN1C1CCN(Cc2ccc(Cl)cc2)CC1` [compound 281], the half-maximal inhibitory concentration (IC50) is 25 to 100 nM.

In turn, `C[C@@H]1CN(c2ncc(C(=O)NCc3ccc(Cl)c(Cl)c3)cc2Cl)CCN1C1CCN(Cc2ccc(C#N)cc2)CC1` [compound 282] displayed a 50% inhibitory concentration (IC50) of 25 to 100 nM.

Consider `O=C(NCCOc1ccccc1)c1cnc(N2CCN(C3CCN(Cc4ccc(Cl)cc4)CC3)CC2)c(Br)c1` [compound 283], for which the 50% inhibitory concentration (IC50) was 25 to 100 nM.

`O=C(NCc1ccc(Cl)c(Cl)c1)c1cnc(N2CCN(C3CCN(Cc4ccc(Br)cc4)CC3)CC2)c(Br)c1` [compound 284] displayed a 50% inhibitory concentration (IC50) of 25 to 100 nM.

As to `N#Cc1ccc(C(=O)N2CCC(N3CCN(c4ncc(C(=O)NCc5ccc(Cl)c(Cl)c5)cc4Br)CC3)CC2)cc1` [compound 285], the IC50 lay in the range of 25 to 100 nM.

As to `O=C(NCc1ccc(Cl)c(Cl)c1)c1cnc(N2CCN(C3CCN(Cc4ccc(Cl)cc4)CC3)CC2)c(Cl)c1` [compound 286], the IC50 fell in the range of 25 to 100 nM.

The compound `CC[C@H]1CN(c2ncc(C(=O)NC(C)C)cc2Cl)CCN1C1CCN(C(=O)c2ccc(C#N)cc2)CC1` [compound 287] registered a concentration for half-maximal inhibition (IC50) of 25 to 100 nM.

For `O=C(NCc1ccc(Cl)cc1)c1cnc(N2CCN(C3CCN(Cc4ccc(Cl)cc4)CC3)CC2)c(Cl)c1` [compound 288], the IC50 lay within 25 to 100 nM.

As to `O=C(NCc1ccc(Cl)c(Cl)c1)c1cnc(N2CCN(C3CCN(Cc4ccc(Br)cc4)CC3)CC2)c(Cl)c1` [compound 289], the IC50 is 25 to 100 nM.

In turn, `O=C(NCCOc1ccccc1)c1cnc(N2CCN(C3CCN(Cc4ccc(Br)cc4)CC3)CC2)c(Br)c1` [compound 290] registered a half-inhibitory concentration (IC50) of 25 to 100 nM.

On to `C[C@H]1CN(c2ncc(C(=O)NCc3ccc(F)c(F)c3)cc2Cl)CCN1C1CCN(C(=O)c2ccc(C#N)cc2)CC1` [compound 291], for which the concentration for half-maximal inhibition (IC50) is 25 to 100 nM.

Consider `CNC(=O)c1cnc(N2CCN(C3CCN(C(=N)c4ccc(Cl)cc4)CC3)[C@@H](C)C2)c(Cl)c1` [compound 292], for which the concentration for half-maximal inhibition (IC50) lay in the range of 25 to 100 nM.

In turn, `O=C(NCc1ccc(Br)cc1)c1cnc(N2CCN(C3CCN(Cc4ccc(Cl)c(F)c4)CC3)CC2)c(Cl)c1` [compound 293] displayed an IC50 of 25 to 100 nM.

The compound `CCNC(=O)c1cnc(N2CCN(C3CCN([C@@H](C)c4ccc(Cl)cc4)CC3)[C@@H](C)C2)c(Cl)c1` [compound 294] showed a half-maximal inhibitory concentration (IC50) of 25 to 100 nM.

Compound `CC[C@H]1CN(c2ncc(C(=O)NC)cc2Cl)CCN1C1CCN(Cc2ccccc2F)CC1` [compound 295] gave an IC50 of 25 to 100 nM.

In the case of `O=C(NCc1cccc(F)c1)c1cnc(N2CCN(C3CCN(Cc4ccc(Cl)c(F)c4)CC3)CC2)c(Cl)c1` [compound 296], the concentration for half-maximal inhibition (IC50) lay in the range of 25 to 100 nM.

The compound `O=C(NCc1ccc(F)cc1)c1cnc(N2CCN(C3CCN(Cc4ccc(Cl)cc4)CC3)CC2)c(Cl)c1` [compound 297] gave a half-maximal inhibitory concentration (IC50) of 25 to 100 nM.

`N#Cc1ccc(C(=O)N2CCC(N3CCN(c4ncc(C(=O)NCc5ccc(F)c(F)c5)cc4Br)CC3)CC2)cc1` [compound 298] registered an IC50 of 25 to 100 nM.

Take `CNC(=O)c1cnc(N2CCN(C3CCN(Cc4ccc(F)cc4Cl)CC3)[C@@H](C)C2)c(Cl)c1` [compound 299]: the 50% inhibitory concentration (IC50) was in the range of 25 to 100 nM.

`C[C@@H]1CN(c2ncc(C(=O)NCC3CCCCC3)cc2Cl)CCN1C1CCN(Cc2ccc(C#N)cc2)CC1` [compound 300] came in with an IC50 of 25 to 100 nM.

`CNC(=O)c1cnc(N2CCN(C3CCN(Cc4ccc(C(F)(F)F)cc4)CC3)[C@@H](C)C2)c(Cl)c1` [compound 301] gave a half-maximal inhibitory concentration (IC50) of 25 to 100 nM.

For the compound `CNC(=O)c1cnc(N2CCN(C3CCN(Cc4ccc(Cl)cc4)CC3C)CC2)c(Cl)c1` (stereo not shown) [compound 302], the IC50 fell in the range of 25 to 100 nM.

Compound `CC[C@H]1CN(c2ncc(C(=O)NC)cc2Cl)CCN1C1CCN(C(=O)c2ccc(C#N)cc2)CC1` [compound 303] displayed an IC50 of 25 to 100 nM.

With `COc1ccc(CN2CCC(N3CCN(c4ncc(C(=O)NCCOc5ccccc5)cc4Br)CC3)CC2)cc1` [compound 304], the IC50 was in the range of 25 to 100 nM.

Consider `O=C(NCc1ccc(C(F)(F)F)cc1)c1cnc(N2CCN(C3CCN(Cc4ccc(Cl)cc4)CC3)CC2)c(Br)c1` [compound 305], for which the concentration for half-maximal inhibition (IC50) is 25 to 100 nM.

In turn, `CC[C@H]1CN(c2ncc(C(=O)NCCN)cc2Cl)CCN1C1CCN(Cc2ccc(Cl)cc2F)CC1` [compound 306] returned a concentration for half-maximal inhibition (IC50) of 25 to 100 nM.

`C[C@H]1CN(c2ncc(C(=O)NCc3ccc(F)c(F)c3)cc2Cl)CCN1C1CCN(C(=O)c2ccc(Cl)cc2)CC1` [compound 307] came in with an IC50 of 25 to 100 nM.

Compound `O=C(NCc1ccc(Br)cc1)c1cnc(N2CCN(C3CCN(Cc4ccc(Br)cc4)CC3)CC2)c(Cl)c1` [compound 308] registered an IC50 of 25 to 100 nM.

Take `CCNC(=O)c1cnc(N2CCN(C3CCN(C(=O)c4ccc(Cl)cc4)CC3)C(CC(F)(F)F)C2)c(Cl)c1` (stereo not shown) [compound 309]: the IC50 lay within 25 to 100 nM.

In the case of `Cc1cc(NC(=O)c2cnc(N3CCN(C4CCN(Cc5ccc(Cl)cc5)CC4)[C@@H](C)C3)c(Cl)c2)no1` [compound 310], the half-inhibitory concentration (IC50) was in the range of 25 to 100 nM.

The compound `C[C@H]1CN(c2ncc(C(=O)NCc3ccc(F)c(F)c3)cc2Cl)CCN1C1CCN(CCOc2ccc(Cl)cc2)CC1` [compound 311] displayed an IC50 of 25 to 100 nM.

As for `C[C@H]1CN(c2ncc(C(=O)Nc3cc[nH]n3)cc2Cl)CCN1C1CCN(Cc2ccc(Cl)cc2)CC1` [compound 312], the IC50 lay within 25 to 100 nM.

For the compound `N#Cc1ccc(CN2CCC(N3CCN(c4ncc(C(=O)NCCOc5ccccc5)cc4Br)CC3)CC2)cc1` [compound 314], the IC50 fell in the range of 25 to 100 nM.

Compound `CC[C@H]1CN(c2cc(N)c(C(N)=O)cc2Cl)CCN1C1CCN(Cc2ccc(Cl)cc2F)CC1` [compound 315] registered an IC50 of 25 to 100 nM.

For the compound `CC[C@H]1CN(c2ncc(C(=O)NC)c(N)c2Cl)CCN1C1CCN(Cc2ccc(Cl)cc2F)CC1` [compound 316], the half-inhibitory concentration (IC50) is 25 to 100 nM.

The compound `N#Cc1ccc(CN2CCC(N3CCN(c4ncc(C(=O)NCc5ccc(Cl)c(Cl)c5)cc4Cl)CC3)CC2)cc1` [compound 317] gave an IC50 of 25 to 100 nM.

As to `CC[C@H]1CN(c2ncc(C(=O)NC3CC3)cc2Cl)CCN1C1CCN(Cc2ccc(F)cc2C(F)(F)F)CC1` [compound 318], the IC50 was 25 to 100 nM.

For the compound `C[C@H]1CN(c2ncc(C(=O)NCc3ccc(Cl)c(Cl)c3)cc2Cl)CCN1C1CCN(C(=O)c2ccc(C#N)cc2)CC1` [compound 319], the concentration for half-maximal inhibition (IC50) was in the range of 25 to 100 nM.

Broadly, the IC50 is the concentration that gives 50% inhibition. Read a high IC50 as weaker potency in that assay.
